Source: patent publication US10414811B2, “Protease-resistant lipidated GLP-1 analogs” (MEDIMMUNE LIMITED, priority 2015, dated 2019)
Where two headings read alike, the source gives them in different places. Numbered stars: 1 amine (or outer) side, 2 acyl side, 3 side chain; on linkers, the order of the positions; unused ones are H or OH. Square brackets hold non-standard residues; d marks the D form. Side chains are listed from the residue outwards. Peptide text beside a SMILES is read from it. * marks the point of attachment. γGlu = O=C(O)[C@H](CCC(=O)[*:2])N[*:1]; Palmitoyl = CCCCCCCCCCCCCCCC(=O)*; αMeF = C[C@](N)(Cc1ccccc1)C(=O)O; αMeK = C[C@](N)(CCCCN)C(=O)O; αMeS = C[C@](N)(CO)C(=O)O; Aib = CC(C)(N)C(=O)O

How the values were obtained:
Format in all cases: cell-based
[1] = target: T1, human glucose-dependent insulinotropic peptide receptor (GIPR) (Homo sapiens, UniProt P48546); assay: cAMP assay, human GIPR cells; settings: cAMP assay
T1 construct: expressed in transfected cells
T1 sequence (P48546 22-466): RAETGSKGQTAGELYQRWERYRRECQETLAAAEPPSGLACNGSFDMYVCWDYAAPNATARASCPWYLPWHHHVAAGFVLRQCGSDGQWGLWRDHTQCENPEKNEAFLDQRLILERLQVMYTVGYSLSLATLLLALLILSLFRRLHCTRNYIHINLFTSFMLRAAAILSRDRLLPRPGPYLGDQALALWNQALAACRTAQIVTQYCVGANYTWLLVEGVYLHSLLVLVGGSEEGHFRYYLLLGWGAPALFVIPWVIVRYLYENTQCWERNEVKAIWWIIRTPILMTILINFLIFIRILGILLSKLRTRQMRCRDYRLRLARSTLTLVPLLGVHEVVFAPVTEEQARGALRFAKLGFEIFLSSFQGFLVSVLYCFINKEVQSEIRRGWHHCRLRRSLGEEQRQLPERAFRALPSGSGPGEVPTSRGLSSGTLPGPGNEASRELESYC
How it was run: (§1)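 Peptide-stimulated cAMP measured by two-step HTRF after a 30 min room-temperature incubation with receptor-expressing cells (hGLP-1R, hGIPR at 1×10^5 cells/ml; hGCGR at 2×10^5 cells/ml). Duplicate dilutions; EC50 from 4-parameter logistic fit of % Delta F.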

[2] = target: T2, human glucagon receptor (GCGR) (Homo sapiens, UniProt P47871); assay: cAMP assay, human GCGR cells; settings: cAMP assay
T2 construct: expressed in transfected cells
How it was run: as §1

[3] = target: T3, human GLP-1 receptor (GLP-1R) (Homo sapiens, UniProt P43220); assay: cAMP assay, human GLP-1R cells
T3 construct: expressed in transfected cells
How it was run: as §1

[4] = first determination (n1), read-out: Primary assay EC50 GIP-R (n1)
[5] = second determination (n2), read-out: Primary assay EC50 GIP-R (n2)
[6] = first determination (n1), read-out: Primary assay EC50 Gluc-R (n1)
[7] = second determination (n2), read-out: Primary assay EC50 Gluc-R (n2)
[8] = cAMP assay, first determination (n1), read-out: Primary assay EC50 GLP-1R n1
[9] = cAMP assay, second determination (n2), read-out: Primary assay EC50 GLP-1R n2
[10] = mean of n1 and n2, read-out: Mean pM GLP-1R

T3 sequence (P43220 24-463): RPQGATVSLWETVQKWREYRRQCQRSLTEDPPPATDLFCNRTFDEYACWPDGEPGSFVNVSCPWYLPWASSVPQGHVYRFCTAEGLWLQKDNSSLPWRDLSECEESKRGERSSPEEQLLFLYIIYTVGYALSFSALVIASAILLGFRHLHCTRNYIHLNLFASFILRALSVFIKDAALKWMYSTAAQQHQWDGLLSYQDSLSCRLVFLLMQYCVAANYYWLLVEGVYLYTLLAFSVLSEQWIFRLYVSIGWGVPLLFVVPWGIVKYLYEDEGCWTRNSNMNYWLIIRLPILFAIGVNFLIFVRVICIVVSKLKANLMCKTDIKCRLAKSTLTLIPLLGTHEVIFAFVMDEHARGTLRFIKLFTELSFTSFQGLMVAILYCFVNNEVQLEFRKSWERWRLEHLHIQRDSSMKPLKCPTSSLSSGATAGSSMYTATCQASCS
T2 sequence (P47871 26-477): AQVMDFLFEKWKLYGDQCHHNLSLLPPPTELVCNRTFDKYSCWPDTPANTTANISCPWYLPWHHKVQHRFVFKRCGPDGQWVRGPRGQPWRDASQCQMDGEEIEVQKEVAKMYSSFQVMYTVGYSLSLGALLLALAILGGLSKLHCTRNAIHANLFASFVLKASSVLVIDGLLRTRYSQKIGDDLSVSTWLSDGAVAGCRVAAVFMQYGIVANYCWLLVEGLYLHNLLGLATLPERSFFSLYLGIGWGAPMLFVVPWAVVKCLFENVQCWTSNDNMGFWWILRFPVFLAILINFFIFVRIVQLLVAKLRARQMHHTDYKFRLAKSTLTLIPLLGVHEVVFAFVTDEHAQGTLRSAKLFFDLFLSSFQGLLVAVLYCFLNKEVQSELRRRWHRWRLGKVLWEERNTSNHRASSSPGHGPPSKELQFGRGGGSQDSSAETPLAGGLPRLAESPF

Row | EC50 [1, 4] [nM] | EC50 [1, 5] [nM] | EC50 [2, 6] [nM] | EC50 [2, 7] [nM] | EC50 [3, 8] [pM] | EC50 [3, 9] [pM] | EC50 [3, 10] [pM] | Structure (SMILES)
1 | ≥ 89 | ≥ 27 | ≥ 89 | ≥ 27 | 4900 | 1700 | 3260 | CCCCCCCCCCCCCCCC(=O)N[C@@H](CCC(=O)NCCCC[C@H](NC(=O)CNC(=O)CNC(=O)[C@](C)(CCCCN)NC(=O)[C@@H](NC(=O)[C@@H](NC(=O)[C@](C)(Cc1ccccc1)NC(=O)[C@H](C)NC(=O)[C@@H](NC(=O)[C@](C)(Cc1ccccc1)NC(=O)[C@H](CCC(=O)O)NC(=O)[C@](C)(CCCCN)NC(=O)[C@H](C)NC(=O)[C@H](C)NC(=O)[C@H](CCC(=O)O)NC(=O)CNC(=O)[C@H](CCC(=O)O)NC(=O)[C@H](CC(C)C)NC(=O)[C@](C)(Cc1ccccc1)NC(=O)[C@H](CO)NC(=O)[C@](C)(CO)NC(=O)[C@@H](NC(=O)[C@H](CC(=O)O)NC(=O)[C@H](CC(=O)O)NC(=O)[C@@H](NC(=O)[C@](C)(Cc1ccccc1)NC(=O)[C@H](CO)NC(=O)CNC(=O)[C@H](CCC(=O)O)NC(=O)C(C)(C)NC(=O)[C@@H](N)Cc1c[nH]cn1)[C@@H](C)O)C(C)C)[C@@H](C)CC)C(C)C)C(C)C)C(N)=O)C(=O)O [compound 35] (H-H[Aib]EGS[αMeF]TDDV[αMeS]S[αMeF]LEGEAA[αMeK]E[αMeF]IA[αMeF]VV[αMeK]GGK([γGlu-Palmitoyl])-NH2; N-terminus assumed)
2 | ≥ 28 | ≥ 28 | ≥ 28 | ≥ 28 | 39 | 31 | 34.7 | CCCCCCCCCCCCCCCCCC(=O)NCCOCCOCC(=O)NCCCC[C@H](NC(=O)[C@H](C)NC(=O)[C@H](C)NC(=O)[C@H](CCC(=O)O)NC(=O)CNC(=O)[C@H](CCC(=O)O)NC(=O)[C@H](CC(C)C)NC(=O)[C@](C)(Cc1ccccc1)NC(=O)[C@H](CO)NC(=O)[C@](C)(CO)NC(=O)[C@@H](NC(=O)[C@H](CC(=O)O)NC(=O)[C@H](CO)NC(=O)[C@@H](NC(=O)[C@](C)(Cc1ccccc1)NC(=O)[C@H](CO)NC(=O)CNC(=O)[C@H](CCC(=O)O)NC(=O)C(C)(C)NC(=O)[C@@H](N)Cc1c[nH]cn1)[C@@H](C)O)C(C)C)C(=O)N[C@@H](CCC(=O)O)C(=O)N[C@@](C)(Cc1ccccc1)C(=O)N[C@H](C(=O)N[C@@H](C)C(=O)N[C@@](C)(Cc1ccccc1)C(=O)N[C@H](C(=O)N[C@H](C(=O)N[C@@](C)(CCCCN)C(=O)NCC(=O)NCC(N)=O)C(C)C)C(C)C)[C@@H](C)CC [compound 152]
3 | ≥ 28 | ≥ 28 | ≥ 28 | ≥ 28 | 18 | 9.3 | 14 | CCCCCCCCCCCCCCCC(=O)N[C@@H](CCC(=O)NCCCC[C@H](NC(=O)[C@H](CCC(=O)O)NC(=O)[C@](C)(CCCCN)NC(=O)[C@H](C)NC(=O)[C@H](C)NC(=O)[C@H](CCC(=O)O)NC(=O)CNC(=O)[C@H](CCC(=O)O)NC(=O)[C@H](CC(C)C)NC(=O)[C@](C)(Cc1ccccc1)NC(=O)[C@H](CO)NC(=O)[C@](C)(CO)NC(=O)[C@@H](NC(=O)[C@H](CC(=O)O)NC(=O)[C@H](CO)NC(=O)[C@@H](NC(=O)[C@](C)(Cc1ccccc1)NC(=O)[C@H](CO)NC(=O)CNC(=O)[C@H](CCC(=O)O)NC(=O)C(C)(C)NC(=O)[C@@H](N)Cc1c[nH]cn1)[C@@H](C)O)C(C)C)C(=O)N[C@H](C(=O)N[C@@H](C)C(=O)N[C@@](C)(Cc1ccccc1)C(=O)N[C@H](C(=O)N[C@H](C(=O)N[C@@](C)(CCCCN)C(=O)NCC(=O)NCC(N)=O)C(C)C)C(C)C)[C@@H](C)CC)C(=O)O [compound 78]
